Earlier results, collected in patent US8911966B2, “Efficient astaxanthin production strains derived from Haematococcus pluvialis” (Cognis IP Management GmbH, priority 2007, dated 2014).

Conditions: versus α-tocopherol

SMILES: CC1=C(/C=C/C(C)=C/C=C/C(C)=C/C=C/C=C(C)/C=C/C=C(C)/C=C/C2=C(C)C(=O)C(O)CC2(C)C)C(C)(C)CC(O)C1=O (stereo not drawn) [astaxanthin, 3,3′-dihydroxy-β,β-carotene-4,4′-dione]
- antioxidant activities relative to α-tocopherol (vitamin E): over 500 times
